The text below walks through data of patent US7579486B2, “Metalloprotein inhibitors” (Regents of the University of California, San Diego, priority 2004, dated 2009).

Like-named read-outs stand apart in the source and are kept apart here. Where only a bound is given, the exact number is not on record here.

In one test the target is HDAC. Briefly: Inhibition of histone deacetylase (HDAC). Particulars: read-out: Average IC50 against HDAC. Type of test: biochemical.
Another test concerns the target LF (Bacillus anthracis, UniProt P15917). Briefly: biochemical. The arrangement: species or system B. anthracis.
Test [1] has as its target T1, human MMP-1 catalytic domain (Homo sapiens, UniProt P03956).
T1 sequence (P03956 100-268): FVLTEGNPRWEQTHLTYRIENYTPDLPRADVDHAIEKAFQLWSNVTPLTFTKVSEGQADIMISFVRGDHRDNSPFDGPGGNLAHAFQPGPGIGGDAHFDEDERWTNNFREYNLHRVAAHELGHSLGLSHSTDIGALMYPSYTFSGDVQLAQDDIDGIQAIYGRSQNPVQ
Briefly: MMP-1 fluorescent microplate assay (BIOMOL kit). Particulars: fluorescence-based assay, 1 h at 37° C. with inhibitor, pH 7.5; read-out: IC50 against MMP-1. Type of test: biochemical. The source says: (§1) Experiments were repeated at least three times.

Test [2] addresses human MMP-2 catalytic domain (Homo sapiens, UniProt P08253). Briefly: MMP-2 fluorescent microplate assay (BIOMOL kit). Type of test: biochemical. Particulars: for IC50: fluorescence-based assay, 1 h at 37° C. with inhibitor, pH 7.5, read-out: IC50 against MMP-2.
Excerpt: as §1

Test [3] relates to neonatal rat cardiac fibroblasts. Briefly: Cell invasion assay (Chemicon ECM 555). Type of test: cell-based. The conditions noted are these: 250 nM, 20 h. The method, then:
Cell Invasion Assay. A cell invasion assay kit was purchased from Chemicon International (Cat. No. ECM 555) and the assay was performed as per kit instructions with minor modifications. Rat cardiac fibroblasts (CF) were prepared as previously described (F. J. Villarreal, N. N. Kim, G. D. Ungab, M. P. Printz, W. H. Dillmann, Circulation 1993, 88, 2849). Briefly, CF were prepared from hearts of 1-2 day old Sprague Dawley rats. Following collagenase digestions (4×), non-myocyte cells (mostly fibroblasts) were isolated by Percoll density gradient. The cell suspension was plated onto uncoated tissue culture dishes for 30 min to allow preferential attachment of CF to the bottom of the dish. The non-adherent cells were removed and fresh media (Dulbecco's modified Eagle's media +10% fetal bovine serum) was added. CF were allowed to proliferate to confluence and then trypsinized and frozen at −70° C. Stocks were freshly plated for the experiment and used from second passage. When reaching 90% confluence, cells were serum deprived for 24 h and then treated according to the experimental design (vide infra).
The CF were trypsinized once more and suspended in fresh serum-free media. Inhibitors AM-5 and AM-6 were dissolved in DMSO and diluted 10-fold in serum free media. […] Increased fluorescence indicates the presence of invaded cells. […]

Where [4] appears, read: read-out: Average IC50 against LF.

LF, sequence (P15917 34-809 limits assumed): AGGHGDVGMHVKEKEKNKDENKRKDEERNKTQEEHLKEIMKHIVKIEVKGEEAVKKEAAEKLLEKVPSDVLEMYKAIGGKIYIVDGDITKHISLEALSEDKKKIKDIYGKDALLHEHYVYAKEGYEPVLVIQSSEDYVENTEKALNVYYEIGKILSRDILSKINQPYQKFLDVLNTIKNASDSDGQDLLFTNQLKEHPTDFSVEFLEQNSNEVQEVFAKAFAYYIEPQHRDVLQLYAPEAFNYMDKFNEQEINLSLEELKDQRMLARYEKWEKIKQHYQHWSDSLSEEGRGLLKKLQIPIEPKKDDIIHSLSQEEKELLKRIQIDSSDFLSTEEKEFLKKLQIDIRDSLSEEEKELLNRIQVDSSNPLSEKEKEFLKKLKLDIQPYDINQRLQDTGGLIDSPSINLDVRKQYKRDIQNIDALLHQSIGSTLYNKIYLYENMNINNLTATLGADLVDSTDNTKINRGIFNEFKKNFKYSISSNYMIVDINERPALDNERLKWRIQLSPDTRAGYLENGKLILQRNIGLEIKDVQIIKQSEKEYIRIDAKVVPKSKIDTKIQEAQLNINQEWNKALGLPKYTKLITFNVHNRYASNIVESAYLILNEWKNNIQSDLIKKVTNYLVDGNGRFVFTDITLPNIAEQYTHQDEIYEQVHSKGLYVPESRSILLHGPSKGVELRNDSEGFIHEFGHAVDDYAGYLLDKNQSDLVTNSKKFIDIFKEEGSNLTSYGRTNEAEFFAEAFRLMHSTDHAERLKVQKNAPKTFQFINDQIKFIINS
human MMP-2 catalytic domain, sequence (P08253 110-452): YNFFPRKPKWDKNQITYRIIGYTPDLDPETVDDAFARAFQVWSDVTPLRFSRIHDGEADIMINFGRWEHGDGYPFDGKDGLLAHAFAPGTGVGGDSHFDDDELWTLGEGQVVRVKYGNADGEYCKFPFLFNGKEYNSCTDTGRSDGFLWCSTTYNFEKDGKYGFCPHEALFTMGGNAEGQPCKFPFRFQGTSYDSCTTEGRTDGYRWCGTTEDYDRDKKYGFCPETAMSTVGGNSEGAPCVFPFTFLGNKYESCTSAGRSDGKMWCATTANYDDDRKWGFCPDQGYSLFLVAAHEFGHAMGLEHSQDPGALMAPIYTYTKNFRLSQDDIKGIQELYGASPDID

`On1ccccc1=S` [1,2-HOPTO]: the IC50 amounted to 860 µM at HDAC and 3900 µM on LF (setting [4]).

`CC(=O)NO` [AHA (N-hydroxyacetamide), N-hydroxyacetamide, reference compound]: the IC50 at HDAC was 3200 µM; on LF (setting [4]), 11400 µM.

On to `Cc1cc(=O)c(O)c(C(=O)Nc2ccc(-c3ccccc3)cc2)o1` [AM-1, 3-Hydroxy-6-methyl-pyran-4(1H)-one-2-carboxy-N-(4-biphenylamide)], for which the half-maximal inhibitory concentration (IC50) in test [1] is more than 50 µM; in test [2] it was 36 µM.

For `Cc1cc(=O)c(O)c(C(=O)NCc2ccc(-c3ccccc3)cc2)o1` [AM-2, 3-Hydroxy-6-methyl-pyran-4(1)-one-2-carboxy-N-(4-phenylbenzylamide)], in test [1], the half-inhibitory concentration (IC50) is more than 50 µM. Further, in test [2], the “potency against MMP-2 compared with MMP-3, in words” value is “substantially less potent against MMP-2” and the half-inhibitory concentration (IC50) was determined as 9.3 µM.

In the case of `Cc1cc(=O)c(O)c(C(=O)NCCc2ccc(-c3ccccc3)cc2)o1` [AM-3], the 50% inhibitory concentration (IC50) in test [1] was more than 50 µM; in test [2], 27 µM.

Take `COc1ccc(CNC(=O)c2oc(C)cc(=O)c2O)cc1` [AM-4]: the 50% inhibitory concentration (IC50) in test [1] is more than 50 µM. Further, in test [2], the “potency against MMP-2 compared with MMP-3, in words” value is “substantially less potent against MMP-2” and the IC50 was more than 50 µM.

For the compound `Cc1cc(=O)c(O)c(C(=O)NCc2ccc(-c3ccc(C#N)cc3)cc2)o1` [AM-5, 3-Hydroxy-6-methyl-pyran-4(1H)-one-2-carboxy-N-(4-(4-cyanophenyl)benzylamide)], the IC50 in test [1] is more than 50 µM. The “reduction of invasion of neonatal rat cardiac fibroblasts through a collagen membrane” value in test [3] amounted to 67%. Further, in test [2], the “potency against MMP-2 compared with MMP-3, in words” value is recorded as “substantially less potent against MMP-2” and the IC50 turned out to be 0.61 µM.

As for `Cc1cc(=O)c(O)c(C(=O)NCc2ccc(-c3ccc(-c4ccccc4)cc3)cc2)o1` [AM-6, 3-Hydroxy-6-methyl-pyran-4(1H)-one-2-carboxy-N-(4-biphenylbenzylamide)], the IC50 in test [1] is more than 50 µM. Besides, in test [3], the “reduction of invasion of neonatal rat cardiac fibroblasts through a collagen membrane” value stood at 55%. Further, in test [2], the “potency against MMP-2 compared with MMP-3, in words” value is listed as “substantially less potent against MMP-2” and the concentration for half-maximal inhibition (IC50) was more than 50 µM.

Turning to `O=C(NCc1ccc(-c2ccccc2)cc1)c1occc(=S)c1O` [PY-2S (27), 3-Hydroxy-4-thiopyrone-2-carboxy-N-(4-phenylbenzylamide)], on LF, the half-maximal inhibitory concentration (IC50) was 38 µM.

The compound `O=C(NCCc1ccc(-c2ccccc2)cc1)c1occc(=S)c1O` [PY-3S (30)] registered a half-maximal inhibitory concentration (IC50) at LF of 18.5 µM.

Turning to `Cc1occc(=S)c1O` [Thiomaltol, thiomaltol], the results for the half-maximal inhibitory concentration (IC50) on HDAC and at LF were 247 µM and 260 µM, respectively.

On to `O=C(NCc1ccc(-c2ccccc2)cc1)c1cccc(=O)n1O` [compound 20], for which the IC50 in test [1] is more than 12.5 µM; in test [2], 0.9 µM.

As usually defined, the IC50 is the concentration that gives 50% inhibition.
